The first assay has as its system IL-1β in supernatants of peripheral blood mononuclear cells. Description: IL-1β assay: BzATP- or ATP-induced IL-1β release from LPS-treated human peripheral blood mononuclear cells. The format is cell-based. To be noted: 2 h; IL-1β in supernatants of LPS-treated human PBMC; BzATP (1 mM) or ATP (5 mM), 120 min. How it is done:
Human whole blood from healthy volunteers was diluted with equal volume of saline and peripheral blood mononuclear cells were collected by using a Limphoprep tube (Daiichi Pure Chemicals), washed with physiological saline and seeded onto a 96-well plate with a medium containing 1-10 ng/mL LPS (SIGMA). 30 minutes later, the cells were treated with varying concentrations of various compounds and incubated for 30 minutes. Then, the cells were treated with BzATP (final concentration 1 mM) or ATP (final concentration 5 mM) and incubated for 120 minutes. The cells were centrifugated to collect supernatents, and the concentration of IL-1β in supernatants were determined by IL-1β HTRF kit (CIS biointernational). The % inhibition rates were calculated and plotted against the logarithms of the concentrations to determine IC50.
Regarding `C[C@@H]1[C@H]2C[C@@H](C[C@H]1Nc1cnn(CCNCc3ccncc3)c(=O)c1Br)C2(C)C` [Synthetic Example 47, 4-Bromo-2-[2-(pyridin-4-ylmethylamino)ethyl]-5-[(1R,2R,3R,5S)-2,6,6-trimethylbicyclo[3.1.1]hept-3-ylamino]pyridazin-3(2H)-one], half-maximal inhibition (IC50) was put at 61 nM.
On the same count and under the same terms, the value for `C[C@@H]1[C@H]2C[C@@H](C[C@H]1Nc1cnn(CC(=O)NCc3ccncc3)c(=O)c1Br)C2(C)C` [compound 9] was 47 nM.

Another assay has as its target T1, Human P2X7 (hP2X7) receptor (Homo sapiens, UniProt Q99572).
T1 construct: myc-His (from the pcDNA3.1/myc-HisA vector); expressed in transfected cells
T1 sequence (Q99572 1-595): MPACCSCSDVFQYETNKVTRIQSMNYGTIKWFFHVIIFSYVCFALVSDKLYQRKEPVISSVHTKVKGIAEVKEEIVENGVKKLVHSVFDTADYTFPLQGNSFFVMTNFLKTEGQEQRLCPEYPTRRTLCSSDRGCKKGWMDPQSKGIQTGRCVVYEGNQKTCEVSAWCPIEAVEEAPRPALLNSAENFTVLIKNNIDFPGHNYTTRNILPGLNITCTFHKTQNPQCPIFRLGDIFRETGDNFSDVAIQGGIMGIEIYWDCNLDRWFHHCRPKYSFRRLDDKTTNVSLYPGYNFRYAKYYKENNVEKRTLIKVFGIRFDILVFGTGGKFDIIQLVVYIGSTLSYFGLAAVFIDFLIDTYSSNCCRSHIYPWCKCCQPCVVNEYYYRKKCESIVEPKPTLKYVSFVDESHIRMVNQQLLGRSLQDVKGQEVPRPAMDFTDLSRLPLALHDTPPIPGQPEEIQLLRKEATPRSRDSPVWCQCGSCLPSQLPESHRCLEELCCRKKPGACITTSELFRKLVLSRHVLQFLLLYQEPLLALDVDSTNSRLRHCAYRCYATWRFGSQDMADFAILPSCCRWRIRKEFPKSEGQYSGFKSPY
Put plainly: Dye assay: BzATP-induced Yo-Pro-1 uptake in HEK293 cells stably expressing hP2X7. The class given is cell-based. To be noted: BzATP 0.1 mM, Yo-Pro-1 2 μM, 30 min pre-treatment, 90 min incubation. From the text: Human P2X7 (hP2×7) was cloned from a normal human brain total RNA library by reverse transcription (using SuperScript II (Invitrogen)) and PCR (using KOD-plus-(TOYOBO)). PCR primers were designed according to hP2X7 sequence registered in GENBANK with a putative amino acid sequence consisting of 595 amino acid residues. The PCR fragments were inserted into pcDNA3.1/myc-HisA vector (Invitrogen) and sequenced for confirmation.
HEK293 cells were transfected with hP2×7/pcDNA3.1/myc-HisA by lipofection, and 1 day later, the cells were treated with 1 mg/mL G418, and resistant cells were selected by appropriately dilution. The resistant cells were cloned by reseeding at a low density.
P2X7 receptor antagonists were screened by a dye uptake assay using HEK293 cells stably expressing hP2×7. Cells were plated on a type I collagen-coated black/clear bottom 96-well plate at 20000 cells/well and a day later, treated with varying concentrations of various test compounds for 30 minutes, then treated with a dye (Yo-Pro-1) (final concentration 2 μM) and BzATP (final concentration 0.1 mM) and incubated for 90 minutes. Then, the fluorescence (indicating the BzATP-induced Yo-Pro-1 uptake mediated by the P2X7 receptor) was measured with a microplate reader (excitation wavelength: 485 nm, emission wavelength: 535 nm). The % inhibition rates were calculated and plotted against the logarithms of the concentrations to determine IC50.
As for `COc1nnc(Cl)cc1C(C)NC(=O)Cn1ncc(N[C@@H]2C[C@@H]3C[C@H]([C@H]2C)C3(C)C)c(Cl)c1=O` (stereo partly shown) [compound 438], the IC50 came to 1.7 nM.
For `CC(NC(=O)Cn1ncc(N[C@@H]2C[C@@H]3C[C@H]([C@H]2C)C3(C)C)c(Cl)c1=O)c1ccnnc1Cl` (stereo partly shown) [compound 439], the IC50 was found to be 2 nM.
For `COc1nnccc1C(C)NC(=O)Cn1ncc(N[C@@H]2C[C@@H]3C[C@H]([C@H]2C)C3(C)C)c(Cl)c1=O` (stereo partly shown) [compound 441], the IC50 is 1.9 nM.
`Cc1cc(C(C)NC(=O)Cn2ncc(N[C@@H]3C[C@@H]4C[C@H]([C@H]3C)C4(C)C)c(Cl)c2=O)c(Cl)nn1` (stereo partly shown) [compound 443]: the IC50 is 5.6 nM.
As for `C[C@@H]1[C@H]2C[C@@H](C[C@H]1Nc1cnn(CC(=O)NCC3CCNC=C3S(C)(=O)=O)c(=O)c1Cl)C2(C)C` (stereo partly shown) [compound 447], the IC50 was 42 nM.
Consider `C[C@@H]1[C@H]2C[C@@H](C[C@H]1Nc1cnn(CC(=O)NCc3ccnc(F)c3Cl)c(=O)c1Cl)C2(C)C` [compound 448], for which the IC50 amounted to 14 nM.
`CC(NC(=O)Cn1ncc(NC2CCC[C@@H]3CCCC[C@H]23)c(Cl)c1=O)c1ccncc1` (stereo partly shown) [compound 453]: the IC50 was found to be 16 nM.

Still in this assay, the particulars now being: BzATP (0.1 mM)-induced Yo-Pro-1 uptake, compounds 30 min pre-treatment, 90 min incubation.
For `C[C@@H]1[C@H]2C[C@@H](C[C@H]1Nc1cnn(CCNCc3ccncc3)c(=O)c1Br)C2(C)C` [Synthetic Example 47, 4-Bromo-2-[2-(pyridin-4-ylmethylamino)ethyl]-5-[(1R,2R,3R,5S)-2,6,6-trimethylbicyclo[3.1.1]hept-3-ylamino]pyridazin-3(2H)-one], the IC50 was found to be 21 nM.
For the compound `C[C@@H]1[C@H]2C[C@@H](C[C@H]1Nc1cnn(CC(=O)NCc3ccncc3)c(=O)c1Br)C2(C)C` [compound 9], the IC50 amounted to 3.5 nM.
On the same count and under the same terms, the figure for `C[C@@H]1[C@H]2C[C@@H](C[C@H]1Nc1cnn(CC(=O)N[C@H](CO)c3ccccc3)c(=O)c1Cl)C2(C)C` [compound 270] is 30 nM.
Take `C[C@@H]1[C@H]2C[C@@H](C[C@H]1Nc1cnn(CC(=O)N[C@@H](CO)c3ccccc3)c(=O)c1Cl)C2(C)C` [compound 271]: the IC50 is 14 nM.
`Cc1cncnc1CNC(=O)Cn1ncc(N[C@@H]2C[C@@H]3C[C@H]([C@H]2C)C3(C)C)c(Cl)c1=O` [compound 281]: the IC50 came to 190 nM.
Same read-out and setting: the value for `CCC(NC(=O)Cn1ncc(N[C@@H]2C[C@@H]3C[C@H]([C@H]2C)C3(C)C)c(Cl)c1=O)c1ccnnc1` (stereo partly shown) [compound 288] was 3 nM; that for `Cc1cc(NC(=O)Cn2ncc(N[C@@H]3C[C@@H]4C[C@H]([C@H]3C)C4(C)C)c(Cl)c2=O)sn1` [compound 292] was 68 nM.
Turning to `C[C@@H]1[C@H]2C[C@@H](C[C@H]1Nc1cnn(CC(=O)NCc3ccnnc3)c(=O)c1Cl)C2(C)C` [compound 293], the IC50 is 3.5 nM.
With `COc1cnccc1CNC(=O)Cn1ncc(N[C@@H]2C[C@@H]3C[C@H]([C@H]2C)C3(C)C)c(Cl)c1=O` [compound 294], the concentration for half-maximal inhibition (IC50) stood at 5.4 nM.
Still for that read-out and setting: the value for `CCC(NC(=O)Cn1ncc(N[C@@H]2C[C@@H]3C[C@H]([C@H]2C)C3(C)C)cc1=O)c1ccncc1` (stereo partly shown) [compound 295] was 230 nM; that for `C[C@@H]1[C@H]2C[C@@H](C[C@H]1Nc1cnn(CCS(=O)(=O)c3ccccc3)c(=O)c1Cl)C2(C)C` [compound 308] was 230 nM.
Same read-out and setting: the value for `CC1(C)[C@@H]2C[C@@H](Nc3cnn(CC(=O)NCc4ccncc4)c(=O)c3Br)[C@@](C)(O)[C@H]1C2` [compound 314] was 34 nM; that for `O=C(Cn1ncc(NC2CCCCCCC2)c(Br)c1=O)NCc1ccncc1` [compound 321] was 38 nM.
With `O=C(Cn1ncc(NC2CCCCCCCCC2)c(Br)c1=O)NCc1ccncc1` [compound 326], the IC50 came to 160 nM.
The same measure, in the same setting: the value for `O=C(Cn1ncc(NC2CC3CC4CC(C3)C2C4)c(Br)c1=O)NCc1ccncc1` (stereo not shown) [compound 331] was 19 nM; that for `CCC(NC(=O)Cn1ncc(NC23CC4CC(CC2C4)C3)c(Br)c1=O)c1ccncc1` (stereo not shown) [compound 335] was 13 nM.
The same measure, in the same setting: the value for `CCC(NC(=O)Cn1ncc(NC23CC4CC(CC2C4)C3)c(Cl)c1=O)c1ccncc1` (stereo not shown) [compound 337] was 8.2 nM.
The same measure, in the same setting: the figure for `Cc1cnccc1CNC(=O)Cn1ncc(NC23CC4CC(CC2C4)C3)c(Cl)c1=O` [compound 338] is 5.3 nM.
For `O=C(Cn1ncc(NC23CC4CC(CC2C4)C3)c(Cl)c1=O)NCc1ccnc(F)c1` [compound 343], the IC50 is 25 nM.
Same read-out and setting: the figure for `O=C(Cn1ncc(NC23CC4CC(CC2C4)C3)c(Br)c1=O)NCc1ccnnc1` [compound 345] is 34 nM; for `C[C@@H](NC(=O)Cn1ncc(NC23CC4CC(CC2C4)C3)c(Cl)c1=O)c1ccncc1` [compound 347] it is 5 nM.
On to `CC(NC(=O)Cn1ncc(NC23CC4CC(CC2C4)C3)c(Br)c1=O)c1ccnnc1` (stereo not shown) [compound 348], for which the IC50 was 26 nM.
Still for that read-out and setting: the figure for `CCC(NC(=O)Cn1ncc(NC23CC4CC(CC2C4)C3)c(Cl)c1=O)c1ccncn1` (stereo not shown) [compound 351] is 45 nM.
The same measure, in the same setting: the figure for `CC(NC(=O)Cn1ncc(NC23CC4CC(CC2C4)C3)c(Cl)c1=O)c1ccncc1Cl` (stereo not shown) [compound 354] is 2.6 nM; for `CCC(NC(=O)Cn1ncc(NC2CCCCCCC2)c(Br)c1=O)c1ccncc1` (stereo not shown) [compound 355] it is 27 nM; for `CCC(NC(=O)Cn1ncc(N[C@@H]2C[C@@H]3C[C@@H](C3(C)C)[C@]2(C)O)c(Cl)c1=O)c1ccncc1` (stereo partly shown) [compound 360] it is 14 nM.
For the compound `Cc1cnccc1CNC(=O)Cn1ncc(N[C@@H]2C[C@@H]3C[C@@H](C3(C)C)[C@]2(C)O)c(Cl)c1=O` [compound 361], the IC50 was 18 nM.
The same measure, in the same setting: the value for `CN(C)c1cnccc1CNC(=O)Cn1ncc(N[C@@H]2C[C@@H]3C[C@@H](C3(C)C)[C@]2(C)O)c(Cl)c1=O` [compound 362] was 3.1 nM; that for `CC(NC(=O)Cn1ncc(N[C@@H]2C[C@@H]3C[C@@H](C3(C)C)[C@]2(C)O)c(Cl)c1=O)c1ccncc1Cl` (stereo partly shown) [compound 363] was 2.8 nM.
As for `CC(NC(=O)Cn1ncc(N[C@@H]2C[C@@H]3C[C@@H](C3(C)C)[C@]2(C)O)c(Cl)c1=O)c1ccnnc1` (stereo partly shown) [compound 364], the IC50 came to 3.4 nM.
Consider `CC(NC(=O)Cn1ncc(N[C@@H]2C[C@@H]3C[C@@H](C3(C)C)[C@]2(C)O)c(Cl)c1=O)c1ccnc(F)c1` (stereo partly shown) [compound 365], for which the IC50 was determined as 2.7 nM.
Same read-out and setting: the value for `CN(C)c1cnccc1CNC(=O)Cn1ncc(NC23CC4CC(CC(C4)C2)C3)c(Cl)c1=O` [compound 366] was 2.6 nM; that for `CC(NC(=O)Cn1ncc(NC23CC4CC(CC(C4)C2)C3)c(Cl)c1=O)c1ccnnc1` (stereo not shown) [compound 367] was 3 nM; that for `C[C@@H](NC(=O)Cn1ncc(NC2C3CC4CC(C3)CC2C4)c(Cl)c1=O)c1ccncc1` (stereo partly shown) [compound 368] was 2.6 nM.
The same measure, in the same setting: the figure for `C[C@@H](NC(=O)Cn1ncc(NC2C3CCCC2CCC3)c(Cl)c1=O)c1ccncc1` (stereo partly shown) [compound 369] is 2.1 nM; for `CC(NC(=O)Cn1ncc(NC2C3CCCC2CCC3)c(Br)c1=O)c1ccnnc1` (stereo not shown) [compound 372] it is 3.2 nM.
On the same count and under the same terms, the value for `CN(C)c1cnccc1CNC(=O)Cn1ncc(NC2C3CCCC2CCC3)c(Cl)c1=O` (stereo not shown) [compound 373] was 2.8 nM; that for `CC(NC(=O)Cn1ncc(NC2C3CCCC2CCC3)c(Cl)c1=O)c1ccncn1` (stereo not shown) [compound 374] was 6 nM; that for `CC(NC(=O)Cn1ncc(NC2C3CCCC2CCC3)c(Cl)c1=O)c1ccnnc1` (stereo not shown) [compound 376] was 2.7 nM.
For `CC(NC(=O)Cn1ncc(NC2C3CCCC2CCC3)c(Cl)c1=O)c1ccnc(F)c1` (stereo not shown) [compound 377], the IC50 is 2.3 nM.

In general, IC50 refers to the concentration that gives 50% inhibition.
